US9439979B2, “Epidermal growth factor receptor (EGFR) and methods of use in adenoviral-associated virus type 6 (AAV6) transduction” (priority 2010, dated 2016)

Key:
HEK293T cells = format: cell-based, human; conditions: inhibitor 10 μm; for effect on AAV2 transduction of HEK293T cells: same conditions
Experimental: (§1) AAV transduction and pharmacological inhibition. The 32D and 32D-EGFR cells were transduced with 1.0E4 genomic particle (gp)/cell with each of the AAV serotypes tested. Cells were analyzed for GFP expression by FACS analysis at 96 hours posttransduction. The HEK293T, HN12 and HEp-2 cells, shown to be permissive to AAV2 and/or AAV6, were used to evaluate the specific role of EGFR in AAV-mediated transduction. Cells were incubated at 37° C. in the presence or absence of AG1478 (10 μm) or gefitnib (10 μm) for 30 minutes prior to addition of AAV. AAV2 and AAV6 containing the CMV-NLS-eGFP construct were added at a concentration of 1.0×10^4 gp/ml for 90 minutes.

HN12 cells = assay: AAV transduction and pharmacological inhibition in HN12 cells; format: cell-based
Experimental: (§2) In vitro transduction of HEp-2 and HN12 cells with AAV2 and AAV6 in the presence or absence of the EGFR inhibitor, AG1478, was studied. […] Transduction of HN12 cells in the presence of AG1478 was reduced by 77% (***p<0.0005, n=3).
as §1
(§3) Increased expression of EGFR correlates with aggressive head and neck squamous cell carcinoma (HNSCC) tumor growth and resistance to treatment (Thariat, J., et al., Int. J. Clin. Oncol., 12: 99-110 (2007)). The utility of AAV6 to transduce and ablate specific HNSCCs presenting with elevated EGFR expression was assessed by gene-directed enzyme prodrug therapy. Two HNSCC cell lines, HN12 and HEp-2 were selected to represent polarities of EGFR expression.

HEp-2 cells = assay: AAV transduction and pharmacological inhibition in HEp-2 cells; format: cell-based
Experimental: as §2, §1, §3

Row | Compound | effect on AAV2 transduction of HEK293T cells (HEK293T cells) | reduction of AAV6 transduction of HN12 cells (HN12 cells; in the presence of AG1478 (10 μm), FACS 96 hours) | effect on AAV2-mediated transduction of HN12 cells (HN12 cells; presence or absence of AG1478) | effect on AAV6 transduction of HEp-2 cells (HEp-2 cells; in the presence of AG1478) | effect on AAV2-mediated transduction of HEp-2 cells (HEp-2 cells; presence or absence of AG1478) | inhibition of AAV6 transduction of HEK293T cells (HEK293T cells; 30 minutes preincubation, AAV6-CMV-eGFP, FACS 48 hours)
1 | COc1cc2ncnc(Nc3ccc(F)c(Cl)c3)c2cc1OCCCN1CCOCC1 [gefitinib] | unchanged | – | – | – | – | –
2 | AG1478 | unchanged | 77% | no significant (NS) difference | not altered | no significant (NS) difference | 50%
